Measured values from patent US20230129258A1, “HETEROTANDEM BICYCLIC PEPTIDE COMPLEXES” (BicycleTx Limited, priority 2019, published 2023).
Where two headings read alike, the source gives them in different places. Starred links: 1 amine or outer side, 2 acyl side, 3 side chain; linkers in the order of their positions; H or OH if unused. Positions of bridges follow the written chain, without caps; N, C: chain ends. Non-standard residues stand in square brackets, D forms with d. Chains are numbered I, II in the order given. No end group written: not given here. *: point of attachment. X1 = O=C(CCOCCOCCOCCN(CCOCCOCCOCCn1cc(CCC(=O)[*:2])nn1)CCOCCOCCOCCn1cc(CCC(=O)[*:3])nn1)[*:1]; X2 = O=C(CCSCCC(=O)[*:1])N1CN(C(=O)CC[*:2])CN(C(=O)CC[*:3])C1; TATA = O=C(CC[*:1])N1CN(C(=O)CC[*:2])CN(C(=O)CC[*:3])C1; Dip = N[C@H](C(=O)O)C(c1ccccc1)c1ccccc1; Hyp = O=C(O)[C@@H]1C[C@@H](O)CN1; hArg = N=C(N)NCCCC[C@H](N)C(=O)O; tBuAla = CC(C)(C)C[C@H](N)C(=O)O; Nle = CCCC[C@H](N)C(=O)O; Pent4ynoyl = C#CCCC(=O)*; Mpa = O=C(O)CCS

Key:
human PBMCs = assay: Human PBMC co-culture cytokine secretion assay with EphA2-expressing tumor cells (MC38, HT-1080, HT29); type: cell-based
Method: […] MC38 were cultured in Dulbecco's Modified Eagle Medium supplemented with 10% heat inactivated Fetal Bovine Serum (FBS), 1× Penicillin/Streptomycin, 10 mM HEPES, and 2 mM L-Glutamine (referred to as R10 medium). Frozen PBMCs from healthy human donors were thawed and washed once in room temperature PBS with benzonase, and then resuspended in RPMI supplemented with 10% heat inactivated Fetal Bovine Serum (FBS), 1× Penicillin/Streptomycin, 10 mM HEPES, and 2 mM L-Glutamine (herein referred to as R10 medium). 100 μl of PBMCs (1,000,000 PBMCs/ml) and 100 μl of tumor cells (100,000 tumor cells/ml) (Effector:Target cell ratio (E:T) 10:1) were plated in each well of a 96 well flat bottom plate for the co-culture assay. 100 ng/ml of soluble anti-CD3 mAb (clone OKT3) was added to the culture on day 0 to stimulate human PBMCs. Test, control compounds, or vehicle controls were diluted in R10 media and 50 μL was added to respective wells to bring the final volume per well to 250 μL. Plates were covered with a breathable film and incubated in a humidified chamber at 37° C. with 5% CO2 for two days. […] Briefly, the standards and samples were added to a black 96 well plate. Microparticle cocktail (provided in Luminex kit, R&D Systems) was added and shaken for 2 hours at room temperature. The plate was washed 3 times using a magnetic holder. Biotin cocktail was then added to the plate and shaken for 1 hour at RT. The plate was washed 3 times using a magnetic holder. Streptavidin cocktail was added to the plate and shaken for 30 minutes at RT. The plates were washed 3 times using a magnetic holder, resuspended in 100 μL of wash buffer, shaken for 2 minutes at RT, and read using the Luminex 2000. Raw data were analyzed using built-in Luminex software to generate standard curves and interpolate protein concentrations, all other data analyses and graphing were performed using Excel and Prism software. Data represents one study with three independent donor PBMCs tested in experimental duplicates.
Similarly, PBMCs from healthy donors were co-cultured with EphA2 expressing cancer cells (MC38 and HT-1080) at a ratio of 5:1 in presence of anti-CD3 and BCY13272. […]

CD137 = CD137 (Homo sapiens, UniProt Q07011); assay: CD137 reporter assay (Promega, Jurkat cells) in co-culture with EphA2-expressing tumor cells (A549, PC3, HT29); type: cell-based; set-up: host or cells: Jurkat reporter cells; settings: for Emax (fold induction over background): CD137 reporter coculture assay with PC3 tumor cells; for EC50: EC50, CD137 reporter coculture assay with PC3 tumor cells
Chain of CD137 (Q07011 24-255): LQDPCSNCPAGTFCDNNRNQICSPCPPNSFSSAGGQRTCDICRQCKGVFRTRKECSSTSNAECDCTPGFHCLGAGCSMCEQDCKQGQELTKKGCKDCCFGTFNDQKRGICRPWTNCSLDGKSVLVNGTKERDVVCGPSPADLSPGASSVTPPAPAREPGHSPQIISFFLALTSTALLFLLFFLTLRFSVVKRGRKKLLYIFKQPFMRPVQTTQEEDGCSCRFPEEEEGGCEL
Summary of the method: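 Readout is Bio-Glo luminescence after 6 h, 37° C co-culture of CD137 reporter Jurkat cells, target tumor cells (EphA2: A549, PC3, HT29; PD-L1: RKO) and titrated test articles in 1% FBS RPMI. EC50 (nM) and maximal induction come from fold change over untreated co-culture.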

MC38 tumors = assay: Anti-tumor activity of EphA2/CD137 complexes in syngeneic MC38 tumor model; type: in vivo, C57BL/6J-hCD137 mice; settings: 15 mg/kg IV Q3D, 7 doses; day 28
Method: 6-8 weeks old C57BL/6J-hCD137 female mice were inoculated in the flank with 1×10^6 syngeneic MC38 cells. When tumors reached 76 mm^3 size on average, mice were randomized to receive vehicle or BCY12491 (intraperitoneal administration). BCY12491 was administered (n=6 mice/treatment cohort) at either 5 mg/kg or 15 mg/kg either daily (QD) or every three days (Q3D). QD dosed mice received 22 doses of BCY12491 and Q3D dosed mice received 8 doses of BCY12491. Tumor growth was monitored by caliper measurements until day 73 after treatment initiation. The results of this experiment may be seen in FIG. 9 where it can be seen that the effect of BCY12491 on tumor growth becomes apparent in the first two weeks of the dosing period reducing the tumor growth and causing reduction of volumes of many of the treated tumors. By day 41, 15 out of 24 BCY12491 treated animals had completely responded to the treatment and had no palpable tumors left.
6-8 week old female C57BL/6J-hCD137 mice [B-hTNFRSF9(CD137) mice; Biocytogen] were implanted subcutaneously with 1×10^6 MC38 cells. Mice were randomized into treatment groups (n=6/cohort) when average tumor volumes reached around 76 mm^3 and were treated with daily doses of vehicle (25 mM histidine, 10% sucrose, pH7). BCY12491 treatment was conducted at two different dose levels (5 and 15 mg/kg) and two different dosing schedules (QD: daily; Q3D: every three days). Animals received either 22 QD doses or 8 Q3D doses intraperitoneally (ip). Tumor growth was monitored until tumor reached volumes over 2000 mm^3 or until 73 days after treatment initiation. After Day 73, 5 complete responder animals were re-challenged with MC38 tumor cell implantation alongside with 5 naïve C57BL/6J-hCD137 mice. Tumor growth was monitored for 20 days.
(§1) 6-8 week old female C57BL/6J-hCD137 mice [B-hTNFRSF9(CD137) mice; Biocytogen] were implanted subcutaneously with 1×10^6 MC38 cells. Mice were randomized into treatment groups (n=6/cohort) when average tumor volumes reached around 92 mm^3 and were treated intravenously with Q3D doses of vehicle (25 mM histidine, 10% sucrose, pH7), 15 mg/kg of BCY12730, BCY12723 or BCY12491 (7 Q3D doses). Tumor growth was monitored for 28 days or until tumors exceeded 2000 mm^3.
as §1, with “76” for “92”, “twice weekly (BIW)” for “Q3D”, “5” for “15”, “BCY13048, BCY13050,” for “BCY12730, BCY12723”, “(6 BIW” for “(7 Q3D”

[1] = Pharmacokinetics in CD1 mice; type: in vivo, CD-1 mice; settings: mouse, in vivo; mice, after IP injection; read-out: circulating plasma half-life (converted)
Method: (§2) Serial bleeding (about 80 μL blood/time point) was performed via submandibular or saphenous vein at each time point. All blood samples were immediately transferred into prechilled microcentrifuge tubes containing 2 μL K2-EDTA (0.5M) as anti-coagulant and placed on wet ice. Blood samples were immediately processed for plasma by centrifugation at approximately 4° C., 3000 g. The precipitant including internal standard was immediately added into the plasma, mixed well and centrifuged at 12,000 rpm, 4° C. for 10 minutes. The supernatant was transferred into pre-labeled polypropylene microcentrifuge tubes, and then quick-frozen over dry ice. The samples were stored at […] or below as needed until analysis. 7.5 μL of the supernatant samples were directly injected for LC-MS/MS analysis using an Orbitrap Q Exactive in positive ion mode to determine the concentrations of analyte. Plasma concentration versus time data were analyzed by non-compartmental approaches using the Phoenix WinNonlin 6.3 software program. C0, CI, Vdss, T½, AUC(0-last), AUC(0-inf), MRT(0-last), MRT(0-inf) and graphs of plasma concentration versus time profile were reported.

[2] = Pharmacokinetics in SD rats; type: in vivo; settings: rat, in vivo; for half-life: iv, read-out: T1/2 (converted); for clearance: read-out: Clp; for Vd: read-out: Vdss
Method: as §2, with “Male SD Rats were dosed with each heterotandem Bicycle peptide complex formulated in 25 mM Histidine HCl, 10% sucrose pH 7 by IV bolus or IV infusion (15 minutes). Serial” for “Serial”

[3] = Pharmacokinetics in cynomolgus monkey; type: in vivo; settings: in vivo, IV infusion (15 min), 1 mg/kg
Method: Serial bleeding (about 1.2 ml blood/time point) was performed from a peripheral vessel from restrained, non-sedated animals at each time point into a commercially available tube containing Potassium (K2) EDTA*2H2O (0.85-1.15 mg) on wet ice and processed for plasma. Samples were centrifuged (3,000×g for 10 minutes at 2 to 8° C.) immediately after collection. 0.1 mL plasma was transferred into labelled polypropylene micro-centrifuge tubes. 5-fold of the precipitant including internal standard 100 ng/mL Labetalol & 100 ng/mL dexamethasone & 100 ng/mL tolbutamide & 100 ng/mL Verapamil & 100 ng/mL Glyburide & 100 ng/mL Celecoxib in MeOH was immediately added into the plasma, mixed well and centrifuged at 12,000 rpm for 10 minutes at 2 to 8° C. Samples of supernatant were transferred into the pre-labeled polypropylene microcentrifuge tubes, and frozen over dry ice. The samples were stored at −60° C. or below until LC-MS/MS analysis. An aliquot of 40 μL calibration standard, quality control, single blank and double blank samples were added to the 1.5 mL tube. Each sample (except the double blank) was quenched with 200 μL IS1 respectively (double blank sample was quenched with 200 μL MeOH with 0.5% tritonX-100), and then the mixture was vortex-mixed well (at least 15 s) with vortexer and centrifuged for 15 min at 12000 g, 4° C. A 10 μL supernatant was injected for LC-MS/MS analysis using an Orbitrap Q Exactive in positive ion mode to determine the concentrations of analyte. Plasma concentration versus time data were analyzed by non-compartmental approaches using the Phoenix WinNonlin 6.3 software program. C0, CI, Vdss, T½, AUC(0-last), AUC(0-inf), MRT(0-last), MRT(0-inf) and graphs of plasma concentration versus time profile were reported.

[4] = human PBMC-MC38 co-culture, Donor 1, 48 h incubation, read-out: Donor 1 EC50 of IFNγ secretion
[5] = human PBMC-MC38 co-culture, Donor 2, 48 h incubation, read-out: Donor 2 EC50 of IFNγ secretion

Question: Which EC50 (human PBMCs; human PBMC-MC38 co-culture, Donor 1, 72 h incubation, read-out: Donor 1 EC50 of IFNγ secretion) does the source give for “BCY12723: EphA2:CD137 1:2; BCY9594 + 2x BCY12143; linker N-(acid-PEG3)-N-bis(PEG3-azide) (peptide 1 A[hArg]DC[Hyp]LVNPLCLHP[dD]W[hArg]C; peptide 2 Ac-C[tBuAla]EE[dK](Pent4ynoyl)PYCFADPY[Nle]C; linker I:4-I:11-I:18, II:1-II:8-II:15 via TATA; not fully specified (bridges); also: chain 2 present twice on linker, EphA2:CD137 1:2)” here?
Answer: 0.13 nM

Question: And the EC50 (human PBMCs; human PBMC-MC38 co-culture, Donor 2, 72 h incubation, read-out: Donor 2 EC50 of IFNγ secretion)?
Answer: 0.095 nM

Question: And the “Fold Improvement over BCY9173, EC50 (nM)” value (CD137; co-culture with PC3)?
Answer: 2.2 fold

Question: And the “Fold Improvement over Emax” value (CD137; co-culture with PC3, versus BCY9173)?
Answer: 1.8 fold

Question: And the complete responses (MC38 tumors)?
Answer: 2 out of 6

Question: What does the source list for “I: A[hArg]DC[Hyp]LVNPLCLHP[dD]W[hArg]C-NH2 / II: Ac-C[tBuAla]PE[dK]PYCFADPY[Nle]CA-NH2 / III: Ac-C[tBuAla]PE[dK]PYCFADPY[Nle]CA-NH2 (linker I:4-I:11-I:18, II:1-II:8-II:15, III:1-III:8-III:15 via TATA; linker I:N-II:5-III:5 via X1) [BCY12491]”?
Answer: half-life [1]: 2.5 h; EC50 (human PBMCs; MC38 co-culture, donor 228711, read-out: EC50 of IFN-γ cytokine secretion): 0.085 nM; EC50 (human PBMCs; MC38 co-culture, donor 228769, read-out: EC50 of IFN-γ cytokine secretion): 0.034 nM; half-life ([2]; IV Bolus): 1.3 h; clearance ([2]; IV Bolus): 20 mL/min/kg; Vd ([2]; IV Bolus): 1.6 L/kg; clearance ([3]; read-out: Clp): 3 mL/min/kg; half-life ([3]; read-out: T1/2 (converted)): 3.2 h; Vd ([3]; read-out: Vdss): 0.36 L/kg

Question: For “I: A[hArg]DC[Hyp]LVNPLCLHP[dD]W[hArg]C-NH2 / II: [Mpa][tBuAla]PE[dK]PYCFADPY[Nle]C-NH2 / III: [tBuAla]PE[dK]PYCFADPY[Nle]C-NH2 (linker I:4-I:11-I:18, II:1-II:8-II:15 via TATA; linker I:N-II:5-III:4 via X1; linker III:N-III:7-III:14 via X2) [BCY12730]”, which EC50 (human PBMCs; [4]) is on record?
Answer: 0.13 nM

Question: And the EC50 (human PBMCs; [5])?
Answer: 0.19 nM

Question: And the “Emax (fold induction over background)” value (CD137)?
Answer: 61.73

Question: And the EC50 (CD137)?
Answer: 0.25 nM

Question: And the half-life ([2]; IV Inf (15 minutes))?
Answer: 2 h

Question: And the clearance ([2]; IV Inf (15 minutes))?
Answer: 18 mL/min/kg

Question: What about the Vd ([2]; IV Inf (15 minutes)) of the same substance?
Answer: 2.6 L/kg

Question: What about the complete responses (MC38 tumors) of the same substance?
Answer: 3 out of 6

Question: For “I: A[hArg]DC[Hyp]LVNPLCL[Dip]P[dD]WTC-NH2 / II: Ac-C[tBuAla]PE[dK]PYCFADPY[Nle]CA-NH2 / III: Ac-C[tBuAla]PE[dK]PYCFADPY[Nle]CA-NH2 (linker I:4-I:11-I:18, II:1-II:8-II:15, III:1-III:8-III:15 via TATA; linker I:N-II:5-III:5 via X1) [BCY13047]”, which EC50 (human PBMCs; [4]) is on record?
Answer: 0.31 nM

Question: And the EC50 (human PBMCs; [5])?
Answer: 0.3 nM

Question: And the “Emax (fold induction over background)” value (CD137)?
Answer: 46.43

Question: What about the EC50 (CD137) of the same substance?
Answer: 0.07 nM
